From PubChem BioAssay AID2060357 (Molecular Pharmacology Branch, DTP, NCI, 2025) come the findings set out here.

The test system of this assay is 292921-168-R-J2-PDC spheroids with HUVEC/MSC, viability. Briefly: Anticancer human tumor 292921-168-R-J2-PDC patient-derived pancreatic carcinoma cell line growth inhibition [TAK]. The following applies: for viability, T/C: stronger effect = lower value. In a few lines: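 Drug combinations, each paired with TAK-243 or ipatasertib, were tested on multi-cell spheroids of 60% malignant cells, 25% HUVEC and 15% hMSC. Top concentrations were at or near the clinical Cmax (10 microM if undetermined), decreasing by half-log; viability is given as % test/control.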

pIC50: −log10 of the molar value. Several values for one entry are separate records, joined by “and”; a condition that tells them apart may be missing. Identical values can stand only once. Where only a bound is given, the exact number is not on record here.
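Also: spheroids exposed to drugs for seven days before readout.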

In the case of `COc1c(OCCCN2CCOCC2)ccc2c3n(c(=NC(=O)c4cnc(N)nc4)nc12)CCN3`, the viability, T/C reads like this: (compound 0.00316 µM) 74.5% and 83.2%; (compound 0.01 µM) 43.7% and 51.3%; (compound 0.0316 µM) 28.2% and 30.1%; (compound 0.1 µM) 14.5% and 16.6%; (compound 0.316 µM) 10.4% and 12.4%; (compound 1 µM) 8.83% and 11.2%. For the same molecule, the pIC50 (curve of compound) was 8.09 and 7.96.

As to `CC(C)CC(NC(=O)C(Cc1ccccc1)NC(=O)c1cnccn1)B(O)O` (configuration not stated) + CC(C)NCC(C(=O)N1CCN(c2ncnc3c2C(C)CC3O)CC1)c1ccc(Cl)cc1, the pIC50 by setting is: (curve of first compound, second compound 0.3 µM) 8.34; (curve of first compound, second compound 0.949 µM) 8.39; (curve of first compound, second compound 3 µM) 8.39; (curve of first compound, second compound 9.49 µM) 8.40; (curve of first compound, second compound 30 µM) more than 10.50. For the same molecule, the viability, T/C reads like this: (second compound 0.3 µM, first compound 31.6 pM) 83.7%; (second compound 0.3 µM, first compound 0.0001 µM) 86.5%; (second compound 0.3 µM, first compound 0.000316 µM) 88.6%; (second compound 0.3 µM, first compound 0.001 µM) 89.3%; (second compound 0.3 µM, first compound 0.00316 µM) 69%; (second compound 0.3 µM, first compound 0.01 µM) 9.99%. The viability, T/C was 80.2% (second compound 0.949 µM, first compound 31.6 pM); 81.7% (second compound 0.949 µM, first compound 0.0001 µM); 83.5% (second compound 0.949 µM, first compound 0.000316 µM); 80.9% (second compound 0.949 µM, first compound 0.001 µM); 62.9% (second compound 0.949 µM, first compound 0.00316 µM); 6.56% (second compound 0.949 µM, first compound 0.01 µM). Moreover, the viability, T/C reads like this: (second compound 3 µM, first compound 31.6 pM) 73.9%; (second compound 3 µM, first compound 0.0001 µM) 76.1%; (second compound 3 µM, first compound 0.000316 µM) 72.6%; (second compound 3 µM, first compound 0.001 µM) 78.6%; (second compound 3 µM, first compound 0.00316 µM) 62.1%; (second compound 3 µM, first compound 0.01 µM) 6.46%. The viability, T/C reads like this: (second compound 9.49 µM, first compound 31.6 pM) 64.1%; (second compound 9.49 µM, first compound 0.0001 µM) 63%; (second compound 9.49 µM, first compound 0.000316 µM) 58.7%; (second compound 9.49 µM, first compound 0.001 µM) 58.5%; (second compound 9.49 µM, first compound 0.00316 µM) 62.8%; (second compound 9.49 µM, first compound 0.01 µM) 4.62%. The viability, T/C by setting is: (second compound 30 µM, first compound 31.6 pM) 41.7%; (second compound 30 µM, first compound 0.0001 µM) 40.5%; (second compound 30 µM, first compound 0.000316 µM) 41.3%; (second compound 30 µM, first compound 0.001 µM) 42.8%; (second compound 30 µM, first compound 0.00316 µM) 38.7%; (second compound 30 µM, first compound 0.01 µM) 6.44%.

As a reminder, the viability, T/C is the ratio of treated to control. Usually pIC50 stands for the IC50 on a negative log10 scale, so that one unit is a factor of ten.
